In patent US6204293A, “Inhibitors of protein isoprenyl transferases” (University of Pittsburgh, priority 1998, dated 2001):
Counter-ions that a name gives are not always drawn. Like-named read-outs stand apart in the source and are kept apart here. Blank lines part the entries; values can stand above or below the molecule they belong to.

Target: T1, Rat brain protein farnesyltransferase (Rattus norvegicus, UniProt Q02293+Q04631)
T1 construct: Rat brain protein farnesyltransferase activity is measured; from tissue; host or cells: rat brain
Test: % inhibition of farnesylation, scintillation proximity assay with biotin-K Ras B fragment
Assay type: biochemical
Settings: for % inhibition at 1 × 10^-7 M: Table 3; for inhibition at 1 µM: read-out: % inhibition at 1 × 10^-6 M; for % inhibition at 1 × 10^-5 M: Table 1
Outline: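 Rat brain enzyme, purified through three steps, in a scintillation proximity assay kit with biotin-K Ras B fragment substrate at 0.1 mM final. Value is % inhibition of farnesylation.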

[1] = read-out: % inhibition at 1 × 10^-7 M
[2] = read-out: % inhibition at 0.01 μM (**), Table 6, ** footnote 0.01 μM (title: 0.01 mM)
[3] = read-out: % inhibition at 0.1 μM (*), Table 6, * footnote 0.1 μM (title: 0.1 mM)
[4] = read-out: % inhibition at 1 × 10^-8 M

T1 sequence (Q02293 whole entry, one chain of several): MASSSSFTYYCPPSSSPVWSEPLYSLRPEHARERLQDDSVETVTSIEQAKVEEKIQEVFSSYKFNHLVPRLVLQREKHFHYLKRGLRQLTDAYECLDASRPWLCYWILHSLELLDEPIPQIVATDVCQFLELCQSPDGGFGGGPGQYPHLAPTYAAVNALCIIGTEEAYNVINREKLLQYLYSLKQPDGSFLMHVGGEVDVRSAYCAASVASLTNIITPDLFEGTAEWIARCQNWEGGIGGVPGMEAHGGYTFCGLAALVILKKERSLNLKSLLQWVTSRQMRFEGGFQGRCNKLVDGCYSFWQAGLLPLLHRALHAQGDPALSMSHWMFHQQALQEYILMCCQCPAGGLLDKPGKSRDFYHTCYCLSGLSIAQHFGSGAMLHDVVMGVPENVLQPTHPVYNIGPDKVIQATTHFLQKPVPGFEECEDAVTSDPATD

% inhibition at 1 × 10^-6 M (Table 2, 1 × 10^-6 M): 84%
Structure (SMILES): CSCC[C@H](NC(=O)c1ccc(NCC2CNCCN2)cc1-c1ccccc1)C(=O)O (stereo partly shown) [Example 286]

% inhibition at 1 × 10^-7 M: 97%
Structure (SMILES): CSCC[C@H](NC(=O)c1ccc(CN[C@H](CO)C2CCCCC2)cc1-c1ccccc1C)C(=O)O [Example 520]

Structure (SMILES): CSCC[C@H](NC(=O)c1ccc(COCc2ccc(-c3ccc(F)cc3)o2)cc1-c1cccc2ccccc12)C(=O)O [Example 868, N-[4-(5-(4-fluorophenyl)furan-2-ylmethoxymethyl)-2-naphth-1-ylbenzoyl]methionine lithium salt]
inhibition at 1 µM: 89%

% inhibition at 1 × 10^-5 M: 48%
Structure (SMILES): CSCC[C@H](NC(=O)c1ccc(CNc2cccc(CC(=O)O)c2)cc1-c1ccccc1)C(=O)O [Example 684]

% inhibition at 1 × 10^-6 M (Table 2, 1 × 10^-6 M): 45%
Structure (SMILES): CSCC[C@H](NC(=O)c1ccc(CNc2ccc(CCO)cc2)cc1-c1ccccc1)C(=O)O [Example 694]

Structure (SMILES): CSCC[C@H](NC(=O)c1ccc(-c2ccccc2-c2ccccc2)cc1-c1ccccc1C)C(=O)[O-].[Li+] [Example 786]
% inhibition at 1 × 10^-6 M (Table 2, 1 × 10^-6 M): 34%

% inhibition at 1 × 10^-6 M (Table 2, 1 × 10^-6 M): 94%
Structure (SMILES): CSCC[C@H](NC(=O)c1ccc(CN(Cc2ccccc2)Cc2ccccc2)cc1-c1ccccc1C)C(=O)O [Example 512]

% inhibition at 1 × 10^-6 M (Table 2, 1 × 10^-6 M): 68%
Structure (SMILES): COc1ccccc1CNCc1ccc(C(=O)N[C@@H](CCSC)C(=O)O)c(-c2ccccc2)c1 [Example 650]

Structure (SMILES): COc1cccc(-c2ccc(COCc3ccc(C(=O)N[C@@H](CCSC)C(=O)O)c(-c4ccccc4C)c3)o2)c1 [Example 442, N-[4-(5-(3-methoxyphenyl)furan-2-ylmethoxymethyl)-2-(2-methylphenyl)benzoyl]methionine lithium salt]
inhibition at 0.1 µM [1]: 88%

Structure (SMILES): CSCC[C@H](NC(=O)c1ccc(CN(Cc2ccccc2)c2cccc([N+](=O)[O-])c2)cc1-c1ccccc1C)C(=O)[O-].[Li+] [Example 842]
% inhibition at 1 × 10^-8 M (Table 4, 1 × 10^-8 M): 88%

% inhibition at 1 × 10^-6 M (Table 2, 1 × 10^-6 M): 95%
Structure (SMILES): CSCC[C@H](NC(=O)c1ccc(NCC(CO)CC2CCCCC2)cc1-c1ccccc1C)C(=O)O (stereo partly shown) [Example 479]

inhibition at 0.01 µM [2]: 78%
Structure (SMILES): CSCC[C@H](NC(=O)c1ccc(CO[C@@H](CC2CCCCC2)C(=O)N2CCS(=O)(=O)CC2)cc1-c1ccccc1C)C(=O)O [Example 1348, N-[4-(3-cyclohexyl-N-thiomorpholin-S,S-dioxide-4-ylpropion-2-yloxymethyl)-2-(2-methylphenyl)benzoyl]methionine, Lithium Salt]

Structure (SMILES): CSCC[C@H](NC(=O)c1ccc(COCc2cc3ccccc3o2)cc1-c1ccccc1C)C(=O)O [Example 533, N-[4-(benzofuran-2-ylmethoxymethyl)-2-(2-methylphenyl)benzoyl]methionine lithium salt]
inhibition at 0.1 µM [1]: 91%

% inhibition at 1 × 10^-7 M: 63%
Structure (SMILES): COc1ccccc1N(Cc1ccccc1)Cc1ccc(C(=O)N[C@@H](CCSC)C(=O)O)c(-c2ccccc2C)c1 [Example 839]

% inhibition at 1 × 10^-7 M: 81%
Structure (SMILES): CCCC(CCC)NOCc1ccc(C(=O)N[C@@H](CCSC)C(=O)O)c(-c2ccccc2C)c1 [Example 929]

Structure (SMILES): CSCC[C@H](NC(=O)c1ccc(COC2(Cc3ccccc3)CCN(C(=O)OC(C)(C)C)CC2)cc1-c1ccccc1C)C(=O)O [Example 809, N-[4-(1-t-butoxycarbonyl-4-benzylpiperidin-4-yloxymethyl)-2-(2-methylphenyl)benzoyl]methionine lithium salt]
inhibition at 1 µM: 78%

inhibition at 0.1 µM [3]: 96%
Structure (SMILES): CSCC[C@H](NC(=O)c1ccc(COC[C@@H](O)CC2CCCCC2)cc1-c1ccccc1C)C(=O)O [Example 1314, N-[4-(3-Cyclohexyl-2-hydroxyprop-1-yloxymethyl)-2-(2-methylphenyl)benzoyl]methionine Lithium Salt]

% inhibition at 1 × 10^-5 M: 71%
Structure (SMILES): CSCC[C@H](NC(=O)c1ccc(CNc2ccc(I)cc2)cc1-c1ccccc1)C(=O)O [Example 688]

inhibition at 0.1 µM [3]: 94%
Structure (SMILES): CSCC[C@H](NC(=O)c1ccc(CO[C@H](COCC2COC(C)(C)O2)CC2CCCCC2)cc1-c1ccccc1C)C(=O)O (stereo partly shown) [Example 1346, N-[4-(3-Cyclohexyl-1-(2,2-dimethyl-1,3-dioxolan-4-methanoxy)prop-2-yloxymethyl)-2-(2-methylphenyl)benzoyl]methionine, Lithium Salt]

% inhibition at 1 × 10^-6 M (Table 2, 1 × 10^-6 M): 42%
Structure (SMILES): CSCC[C@H](NC(=O)c1ccc(CN(C(=O)c2ccccc2)C(CC2CCCCC2)CC2CCCCC2)cc1-c1ccccc1C)C(=O)O [Example 910]

% inhibition at 1 × 10^-6 M (Table 2, 1 × 10^-6 M): 98%
Structure (SMILES): CSCC[C@H](NC(=O)c1ccc(CN(C)C(CC2CCCCC2)C(=O)N2CCCCC2)cc1-c1ccccc1C)C(=O)O (stereo partly shown) [Example 301]

% inhibition at 1 × 10^-7 M: 86%
Structure (SMILES): CSCC[C@H](NC(=O)c1ccc(CN[C@@H](CO)C2CCCCC2)cc1-c1ccccc1C)C(=O)O [Example 604]

% inhibition at 1 × 10^-5 M: 44%
Structure (SMILES): CSCC[C@H](NC(=O)c1ccc(CNCC(C)(C)CN(C)C)cc1-c1ccccc1)C(=O)O [Example 639]

% inhibition at 1 × 10^-6 M (Table 2, 1 × 10^-6 M): 90%
Structure (SMILES): CSCC[C@H](NC(=O)c1ccc(CN(Cc2ccccc2)Cc2ccco2)cc1-c1ccccc1C)C(=O)O [Example 504]

inhibition at 1 µM (Table 2, 1 × 10^-6 M): 90%
Structure (SMILES): CSCC[C@H](NC(=O)c1ccc(COC2CCN(Cc3ccccc3)CC2)cc1-c1ccccc1C)C(=O)O [Example 807, N-[4-(1-benzylpiperidin-4-yloxymethyl)-2-(2-methylphenyl)benzoyl]methioninelithium salt]

inhibition at 0.01 µM (read-out: % inhibition at 1 × 10^-8 M, Table 4, 1 × 10^-8 M): 95%
Structure (SMILES): CSCC[C@H](NC(=O)c1ccc(CO[C@@H](CC2CCCCC2)CN2CCOCC2)cc1-c1ccccc1C)C(=O)O [Example 885, N-[4-(3-Cyclohexyl-1-morpholin-4-ylpropan-2-yl)oxymethyl-2-(2-methylphenyl)benzoyl]methionine trifluoroacetate salt]

Structure (SMILES): CSCC[C@H](NC(=O)c1ccc(CSCc2ccccc2)cc1-c1ccccc1C)C(=O)O [Example 554, N-[4-benzylthiomethyl-2-(2-methylphenyl)benzoyl]methionine, lithium salt]
inhibition at 1 µM: 96%

Structure (SMILES): CSCC[C@H](NC(=O)c1ccc(COCc2cc(-c3ccc(Cl)cc3)co2)cc1-c1ccccc1C)C(=O)O [Example 904, N-[4-(4-(4-chlorophenyl)furan-2-ylmethoxymethyl)-2-(2-methylphenyl)benzoyl]methionine lithium salt]
inhibition at 0.01 µM [4]: 85%

inhibition at 0.01 µM [2]: 91%
Structure (SMILES): CCCC[C@H](CC1CCCCC1)OCc1ccc(C(=O)N[C@@H](CCSC)C(=O)O)c(-c2ccccc2C)c1 [Example 1303, N-[4-(1-Cyclohexyl-2-hexyloxymethyl)-2-(2-methylphenyl)benzoyl]methionine Lithium Salt]

Structure (SMILES): CSCC[C@H](NC(=O)c1ccc(COCc2ccc(-c3ccccc3C(F)(F)F)o2)cc1-c1ccccc1C)C(=O)O [Example 438, N-[4-(5-(2-trifluoromethylphenyl)furan-2-ylmethoxymethyl)-2-(2-methylphenyl)benzoyl]methionine lithium salt]
inhibition at 0.1 µM [1]: 90%

Structure (SMILES): CSCC[C@H](NC(=O)c1ccc(C=Cc2cncs2)cc1-c1ccccc1C)C(=O)[O-].[Li+] [Example 785]
% inhibition at 1 × 10^-7 M: 96%

% inhibition at 1 × 10^-6 M (Table 2, 1 × 10^-6 M): 45%
Structure (SMILES): CSCC[C@H](NC(=O)c1ccc(CNCC(O)c2cccc(O)c2)cc1-c1ccccc1)C(=O)O (stereo partly shown) [Example 661]

Structure (SMILES): CSCC[C@H](NC(=O)c1ccc(CN(Cc2ccccc2)c2cccc(SC)c2)cc1-c1ccccc1C)C(=O)[O-].[Li+] [Example 851]
% inhibition at 1 × 10^-8 M (Table 4, 1 × 10^-8 M): 82%

% inhibition at 1 × 10^-7 M: 84%
Structure (SMILES): CSCC[C@H](NC(=O)c1ccc(CNc2ccc(Oc3ccccc3)cc2)cc1-c1ccccc1C)C(=O)O [Example 864]

% inhibition at 1 × 10^-7 M: 78%
Structure (SMILES): CCCCN(CCCC)Cc1ccc(C(=O)N[C@@H](CCSC)C(=O)O)c(-c2ccccc2C)c1 [Example 917]

Structure (SMILES): CSCC[C@H](NC(=O)c1ccc(COCc2cnc(-c3ccccc3Cl)o2)cc1-c1ccccc1C)C(=O)O [Example 892, N-[4-(2-(2-chlorophenyl)oxazol-5-ylmethoxymethyl)-2-(2-methylphenyl)benzoyl]methionine lithium salt]
inhibition at 0.01 µM [4]: 59%

Structure (SMILES): CSCC[C@H](NC(=O)c1ccc(C=Cc2ccccc2Oc2ccccc2)cc1-c1ccccc1C)C(=O)[O-].[Li+] [Example 453]
% inhibition at 1 × 10^-6 M (Table 2, 1 × 10^-6 M): 90%

Structure (SMILES): CSCC[C@H](NC(=O)c1ccc(COCc2occc2-c2ccc(Cl)cc2)cc1-c1ccccc1C)C(=O)O [Example 827, N-[4-(3-(4-chlorophenyl)furan-2-ylmethoxymethyl)-2-(2-methylphenyl)benzoyl]methionine lithium salt]
inhibition at 0.01 µM [4]: 77%

% inhibition at 1 × 10^-6 M (Table 2, 1 × 10^-6 M): 87%
Structure (SMILES): COC(=O)c1cscc1NCc1ccc(C(=O)N[C@@H](CCSC)C(=O)O)c(-c2ccccc2C)c1 [Example 724]

inhibition at 1 µM (Table 2, 1 × 10^-6 M): 77%
Structure (SMILES): CSCC[C@H](NC(=O)c1cc(Cc2ccccc2)c(COCc2ccco2)cc1-c1ccccc1C)C(=O)O [Example 924]

% inhibition at 1 × 10^-7 M: 97%
Structure (SMILES): CSCC[C@H](NC(=O)c1ccc(CN[C@H](CCCC(C)C)CC2CCCCC2)cc1-c1ccccc1C)C(=O)O [Example 527]

inhibition at 1 µM (Table 2, 1 × 10^-6 M): 24%
Structure (SMILES): CSCC[C@H](NC(=O)c1ccc(COCC2CCOC2)cc1-c1ccccc1)C(=O)O (stereo partly shown) [Example 287, [4-(3-tetrahydrofurylmethyloxymethyl)-2-phenylbenzoyl]methionine]

% inhibition at 1 × 10^-7 M: 92%
Structure (SMILES): CSCC[C@H](NC(=O)c1ccc(CCc2ccc(Oc3ccccc3N)cc2)cc1-c1ccccc1C)C(=O)O [Example 857]

Structure (SMILES): CSCC[C@H](NC(=O)c1ccc(CCc2ccc(C3CCCCC3)cc2)cc1-c1ccccc1C)C(=O)[O-].[Li+] [Example 461]
% inhibition at 1 × 10^-7 M: 93%

% inhibition at 1 × 10^-6 M (Table 2, 1 × 10^-6 M): 93%
Structure (SMILES): Cc1ccccc1-c1cc(CN(C2CC2)C(C)(C)CC2CCCCC2)ccc1C(=O)N[C@@H](CCS(C)(=O)=O)C(=O)O [Example 320]

% inhibition at 1 × 10^-8 M (Table 4, 1 × 10^-8 M): 85%
Structure (SMILES): CSCC[C@H](NC(=O)c1ccc(CN(Cc2ccccc2)c2ccc(C(F)(F)F)cc2)cc1-c1ccccc1C)C(=O)O [Example 853]
